Source: US20050009776A1, “Method of treating atrial fibrillation or atrial flutter” (Aderis Pharmaceuticals, Inc., priority 2003, published 2005)
Marks after values point to notes of the source that are not given here.

What was measured:
[1] = system: A1 receptor / A2A receptor; assay: Affinity for adenosine A1 receptor relative to A2A receptor; assay type: binding
Excerpt: (§1) Therefore, DTI-0009 may be capable of terminating episodes of supraventricular arrythymias at doses that have little effect on normal heart rate or blood pressure.

AV nodal conduction = assay: Slowing of AV nodal conduction versus heart rate reduction; assay type: in vivo; details: guinea pig
Excerpt: as §1

[2] = system: atrioventricular (AV) node; assay: Example 2: electrophysiologic effects on atrioventricular nodal function, 30-minute i.v. infusion; assay type: in vivo, human
Procedure: An open-label, sequential group, dose-escalation study was conducted in electrophysiology laboratories at 11 sites in the United States between October 2000 and August 2001. The study protocol was approved by the institutional review board at each site, and patients provided assent and written informed consent prior to enrollment. Male and female patients (18 to 80 years of age), scheduled to undergo an electrophysiological (EP) study for a known or suspected cardiac arrhythmia or a catheter ablation procedure to an area other than the atrioventricular (AV) node, were enrolled in the study. Study procedures were performed after the completion of the scheduled EP procedure and patients were to be in sinus rhythm at study baseline. Exclusion criteria included: greater than first degree AV block, previous ablation of the AV node or AV node slow pathway, presence of an AV Wenckebach cycle length (AV WBCL)≧500 msec, treatment with atropine during the scheduled EP procedure, systolic blood pressure <90 or >180 mmHg, significant hemodynamic instability, ventricular response rate (VRR)<50 bpm, consumption of caffeine-containing food or beverage within the previous 12 hours, treatment with dipyridamole or diltiazem within the respective 5 half lives or theophylline, aminophylline, treatment with a therapeutic adenosine antagonist within the previous 24 hours, heart transplant or myocardial infarction within 30 days, known hypersensitivity to adenosine, known human immunodeficiency virus infection, or clinically significant hematologic, neurologic, hepatic, or renal function impairment.
Each patient received 1 of 6 doses of DTI-0009 (0.25, 1.0, 2.5, 4.0, 10.0, or 25.0 μg/kg) diluted in normal saline or normal saline only (control). Study drug was administered as a 30-minute i.v. infusion at a rate of 1 mL/minute. Patients were enrolled in sequential dose groups, beginning with the lowest active dose group and continuing in increasing dose order; the final group received normal saline. The decision to proceed to the next highest dose group was based on the safety response in the previous dose group.
Electrophysiologic (EP), electrocardiogram (ECG), blood pressure measurements, and blood collection for clinical laboratory measurements were performed at baseline (−10 to 0 minutes), during treatment (between 20 and 30 minutes), and at 10 minutes post-treatment.
EP measurements included ventricular response rate (VRR) during fixed atrial pacing at 250 and 400 msec (VRR 250 and VRR 400), AV WBCL, the interval from atrium to His bundle (AH interval) during sinus rhythm and rapid fixed atrial pacing at 600 msec, AV node effective refractory period (AVNERP), and atrial effective refractory period (AERP). Ventricular response rate during sinus rhythm was derived from the sinus cycle length.
ECG measurements included PR interval, QRS complex duration, and QT interval. Efficacy was based on changes in EP and ECG parameters from baseline to the treatment period and to post treatment. Safety was based on the incidence of adverse events, blood pressure measurements, and clinical laboratory values.
Demographic and baseline information were summarized by dose group. Efficacy variables were summarized overall by dose group at baseline, during treatment, and at post-treatment; mean changes from baseline to treatment period and post-treatment were calculated. Treatment effects (the mean difference between change from baseline for DTI-0009 dose and change from baseline for normal saline) and confidence intervals (95% CI) were estimated from an analysis of covariance (ANCOVA) model with treatment as the main factor and baseline score as a covariate. Regression models were constructed to test for dose responses. Efficacy analyses included all patients who received at least 20 minutes of study drug infusion, had analyzable VRR 250 at baseline and during treatment, and were in sinus rhythm at baseline.

[3] = Example 5: pharmacokinetics and renal function markers of short i.v. infusions in healthy subjects; assay type: in vivo, human
Procedure: A study was designed to determine the dose dependent pharmacokinetics (PK) of short i.v. infusions of DTI-0009 in healthy subjects. Ten healthy young volunteer (ages 21 to 35 years old) received a 30-minute infusion of 1 μg/kg DTI-0009, or 5 μg/kg DTI-0009 or saline on three different occasions. The subjects were hydrated by a saline infusion ([…]) for one hour prior to and five hours after the start of the drug infusion. Serial plasma and urine samples were taken over 24 hours to measure DTI-0009 concentrations (as well as glucuronide, in urine only), creatinine, sodium and potassium by validated methods. The following renal function markers were assessed over time: urinary flow rate (UF), creatinine clearance (CLCrea), sodium clearance (CLNa) and potassium clearance (CLK). Additionally, noncompartmental PK analysis was performed and instantaneous renal clearance (CLren^inst) was estimated as a function of UF and CLcrea.

## CCNC(=O)[C@H]1O[C@@H](n2cnc3c(NC4CCCC4)ncnc32)[C@H](O)[C@@H]1O [DTI-0009, N^6-cyclopentyl-5′-(N-ethyl)carboxamidoadenosine]
[1]
  affinity for the A1 receptor higher than for the A2A receptor: 340 fold
AV nodal conduction; in vivo
  potency at slowing AV nodal conduction versus reducing heart rate: three times more potent at slowing AV nodal conduction than at reducing heart rate
AV nodal conduction; rapid atrial pacing vs normal sinus rhythm
  rate dependence of slowing AV nodal conduction: more potent at slowing AV nodal conduction during periods of rapid atrial pacing than during normal sinus rhythm
[2]; 0.25 μg/kg, during treatment
  AERP Treatment Effect: -9.6 ms
  AH interval 600 msec Pacing Treatment Effect: 4.85 ms
  AH interval Sinus Rhythm Treatment Effect: -2.8 ms
  AVNERP Treatment Effect: -7.03 ms
[2]; 1.0 μg/kg, during treatment
  AERP Treatment Effect: -18.3 ms
  AH interval 600 msec Pacing Treatment Effect: 2.6 ms
  AH interval Sinus Rhythm Treatment Effect: -0.1 ms
  AVNERP Treatment Effect: -1.0 ms
[2]; 1.0 μg/kg, during treatment, p=0.008
  PR interval treatment effect: -42.2 ms
[2]; 1.0 μg/kg, post-treatment, p=0.023
  PR interval treatment effect: -34.5 ms
[2]; 2.5 μg/kg, during treatment
  AERP Treatment Effect: -7.3 ms
  AH interval 600 msec Pacing Treatment Effect: 18.0 ms
  AH interval Sinus Rhythm Treatment Effect: 7.1 ms
  AVNERP Treatment Effect: 16.0 ms
[2]; 4.0 μg/kg, during treatment
  AERP Treatment Effect: 0.6 ms
  AH interval 600 msec Pacing Treatment Effect: 18.7 ms
  AH interval Sinus Rhythm Treatment Effect: 7.2 ms
  AVNERP Treatment Effect: 82.4 ms
[2]; 4.0 μg/kg, during treatment, CI −51.0, −8.4, p=0.008
  VRR 250 treatment effect: −29.7 bpm
[2]; 10.0 μg/kg, during treatment
  AERP Treatment Effect: −22.0* msec
  AH interval 600 msec Pacing Treatment Effect: 57.9*** msec
  AH interval Sinus Rhythm Treatment Effect: 21.1** msec
  AVNERP Treatment Effect: 231.5*** msec
[2]; 10.0 μg/kg, during treatment, CI −68.3, −26.4, p=0.001
  VRR 250 treatment effect: −47.4 bpm
[2]; 10.0 μg/kg, post-treatment, p=0.007
  PR interval treatment effect: 42.9 ms
[2]; 25.0 μg/kg, during treatment
  AERP Treatment Effect: 4.0 ms
  AH interval 600 msec Pacing Treatment Effect: 64.8** msec
  AH interval Sinus Rhythm Treatment Effect: 14.2 ms
  AVNERP Treatment Effect: 198.3* msec
[2]; 25.0 μg/kg, during treatment, CI −85.7, −18.5, p=0.004
  VRR 250 treatment effect: −52.1 bpm
[2]; 0.25, 1.0, and 2.5 μg/kg
  VRR 250 treatment effect at lower doses: no statistically significant treatment effect
[2]; during the study
  QRS duration or QT interval: no statistically significant changes
[2]; during treatment, 10.0 and 25.0 μg/kg (p=0.001, p=0.035)
  AV WBCL treatment effect: statistically significant treatment effects (increases from baseline)
[2]; post-treatment, 4.0, 10.0 and 25.0 μg/kg (p=0.013, p=0.001, p=0.001)
  AV WBCL treatment effect: statistically significant treatment effects (increases from baseline)
[3]
  Vdss: approached body weight
  duration of inhibitory effects on CLCrea: 1 to 2 h
  duration of inhibitory effects on CLNa: 3 to 4 h
  time at which dose-dependent secondary effects (rebounds) in UF and natriuresis were apparent: 5 to 10 h
[3]; 1 μg/kg vs 5 μg/kg
  CLnonren with increasing dose: appeared unchanged
  CLren reduced with increasing dose: 29%
  CLtot reduced with increasing dose: 25%
[3]; 30-minute i.v. infusion of 1 or 5 μg/kg
  eliminated unchanged in urine: About 42%
[3]; initially, dose-dependent inhibition of CLcrea, CLNa and to a lesser extent CLK
  effect on diuresis, natriuresis and kaliuresis: transiently reduced diuresis, natriuresis and kaliuresis
